The values that follow are results of earlier work, collected in patent US11224646B2, “Intranasal delivery of a cyclic-di-nucleotide adjuvanted vaccine for tuberculosis” (priority 2018, dated 2022).

The target in data set [1] is T1, murine STING (Mus musculus, UniProt Q3TBT3).
T1 sequence (Q3TBT3 1-378): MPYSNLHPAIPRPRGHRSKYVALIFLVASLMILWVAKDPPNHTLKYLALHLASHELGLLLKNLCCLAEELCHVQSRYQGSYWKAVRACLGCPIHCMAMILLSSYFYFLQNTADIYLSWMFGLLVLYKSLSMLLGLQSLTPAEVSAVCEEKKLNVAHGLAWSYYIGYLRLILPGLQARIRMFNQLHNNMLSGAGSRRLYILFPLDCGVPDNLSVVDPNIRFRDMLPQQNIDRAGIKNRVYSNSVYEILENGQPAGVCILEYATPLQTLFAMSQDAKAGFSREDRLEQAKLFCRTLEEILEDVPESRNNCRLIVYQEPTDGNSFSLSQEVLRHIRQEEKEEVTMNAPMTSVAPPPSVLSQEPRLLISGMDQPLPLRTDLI

The test system of data set [2] is five common human STING alleles.
In data set [3] the test system is phosphodiesterases.

The structures appear in SMILES notation.

As to `Nc1nc2c(ncn2[C@@H]2O[C@@H]3CO[P@@](=O)(S)O[C@H]4[C@@H](O)[C@H](n5cnc6c(=O)[nH]c(N)nc65)O[C@@H]4CO[P@@](=O)(S)O[C@H]3[C@H]2O)c(=O)[nH]1` [RR-CDG, dithio-[RP, RP]-cyclic-[G(3′,5′)pG(3′,5′)p]], the “activation of murine STING” value in data set [1] is recorded as “efficiently activates murine STING”. For the same molecule, the “engagement / activation of the five common human STING alleles” value in data set [2] is reported as “does not engage all five common STING alleles”.
On to `Nc1nc2c(ncn2[C@@H]2O[C@@H]3COP(=O)(S)O[C@H]4[C@@H](O)[C@H](n5cnc6c(N)ncnc65)O[C@@H]4CO[P@@](=O)(S)O[C@@H]2[C@@H]3O)c(=O)[nH]1` (stereo partly drawn) [ML-RR-cGAMP, dithio-[RP, RP]-cyclic-[G(2′,5′)pA(3′,5′)p]], for which the hydrolysis by phosphodiesterases result in data set [3] was “resistant to hydrolysis by phosphodiesterases”.
